Measurements from patent US20250154145A1, “OXER1 ANTAGONISTS AND USES THEREOF” (Fairhaven Pharmaceuticals Ins., priority 2021, published 2025).

Each compound was assayed on neutrophils (assay: Neutrophil calcium flux assay (5-OXO-ETE-stimulated, Indo-1 fluorescence)). Details: 5-OXO-ETE-stimulated calcium flux.
Assay type: cell-based
How it was run: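 Indo-1-loaded neutrophils (5×10^6 cells/ml, 30 min at 37 °C) in HBSS with Ca/Mg and HEPES, pre-incubated 5 min with antagonist or buffer. Stimulated with 5-OXO-ETE added at 200 nM (4× stock); fluorescence (ex 331/em 410 nm) read every 5 s for 30 cycles, expressed as net fluorescence.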

Row | Compound | IC50 [nM]
1 | C[C@H](CC(=O)O)CC(=O)c1c(CCCCOCc2ccc(F)cc2)n(C)c2ncc(C#N)cc12 [Compound I-368] | 100 to 300

Same assay, conditions: Neutrophil, 5-OXO-ETE-stimulated calcium flux

Row | Compound | IC50 [nM]
2 | CC(CC(=O)O)CC(=O)c1c(CCCCCC(O)c2cccc(C(=O)N(C)C)c2)n(C)c2ncc(C#N)cc12 (stereo not shown) [Compound I-314] | < 100
3 | C[C@H](CC(=O)O)CC(=O)c1c(CCCCCCC#CC2CC(F)(F)C2)n(C)c2ccc(Cl)cc12 [Compound I-319] | < 100
4 | C[C@H](CC(=O)O)CC(=O)c1c(CCCCCCC#CC2CC(F)(F)C2)n(C)c2ncc(Cl)cc12 [Compound I-320] | < 100
5 | CC(CC(=O)O)CC(=O)c1c(CCCCCCC#CC2COC2)n(C)c2ccc(Cl)cc12 (stereo not shown) [Compound I-321] | < 100
6 | CC(CC(=O)O)CC(=O)c1c(CCCCCCC#CC2CC(F)(F)C2)n(C)c2ncc(C#N)cc12 (stereo not shown) [Compound I-322] | < 100
7 | C[C@H](CC(=O)O)CC(=O)c1c(CCCCCCC#CC2CC(F)(F)C2)[nH]c2ccc(Cl)cc12 [Compound I-323] | < 100
8 | C[C@H](CC(=O)O)CC(=O)c1c(CCCCOCC#CC2CC(F)(F)C2)n(C)c2ccc(Cl)cc12 [Compound I-324] | < 100
9 | C[C@H](CC(=O)O)CC(=O)c1c(CCCOCCC#CC2CC(F)(F)C2)n(C)c2ccc(Cl)cc12 [Compound I-325] | < 100
10 | C[C@H](CC(=O)O)CC(=O)c1c(CCOCCCC#CC2CC(F)(F)C2)n(C)c2ccc(Cl)cc12 [Compound I-326] | < 100
11 | C[C@H](CC(=O)O)CC(=O)c1c(COCCCCC#CC2CC(F)(F)C2)n(C)c2ccc(Cl)cc12 [Compound I-327] | < 100
12 | C[C@H](CC(=O)O)CC(=O)c1c(CCCCCCC#CC2CC(F)(F)C2)n(C)c2ncc(C#N)cc12 [Compound I-328] | < 100
13 | C[C@@H](CC(=O)O)CC(=O)c1c(CCCCCCC#CC2CC(F)(F)C2)n(C)c2ncc(C#N)cc12 [Compound I-329] | > 300
14 | C[C@H](CC(=O)O)CC(=O)c1c(CCCCCC#CC2CC(F)(F)C2)n(C)c2ccc(Cl)cc12 [Compound I-330] | > 300
15 | C[C@H](CC(=O)O)CC(=O)c1c(CCCCCCCC#CC2CC(F)(F)C2)n(C)c2ccc(Cl)cc12 [Compound I-331] | < 100
16 | C[C@H](CC(=O)O)CC(=O)c1c(CCCCCCC#CC2COC2)n(C)c2ccc(Cl)cc12 [Compound I-332] | < 100
17 | C[C@@H](CC(=O)O)CC(=O)c1c(CCCCCCC#CC2COC2)n(C)c2ccc(Cl)cc12 [Compound I-333] | > 300
18 | CC(CC(=O)O)CC(=O)c1c(CCCCCCCC#CC2CC(F)(F)C2)n(C)c2ncc(Cl)cc12 (stereo not shown) [Compound I-334] | > 300
19 | C[C@H](CC(=O)O)CC(=O)c1c(CCCCCCCC#CC2CC(F)(F)C2)n(C)c2ncc(C#N)cc12 [Compound I-335] | < 100
20 | C[C@@H](CC(=O)O)CC(=O)c1c(CCCCCCCC#CC2CC(F)(F)C2)n(C)c2ncc(C#N)cc12 [Compound I-336] | > 300
21 | C[C@H](CC(=O)O)CC(=O)c1c(CCCCCOCC#CC2CC(F)(F)C2)n(C)c2ccc(Cl)cc12 [Compound I-337] | < 100
22 | Cn1c(CCCCCCc2cccc(Cl)c2)c(C(=O)N2CC[C@H](C(=O)O)C2)c2cc(C#N)cnc21 [Compound I-338] | < 100
23 | Cn1c(CCCCCCC#CC2CC(F)(F)C2)c(C(=O)N2CC[C@H](C(=O)O)C2)c2cc(Cl)ccc21 [Compound I-339] | < 100

Row | Compound | IC50 [nM]
24 | Cn1c(CCCCCCC#CC2CC(F)(F)C2)c(C(=O)N2CC[C@H](C(=O)O)C2)c2cc(C#N)cnc21 [Compound I-340] | < 100
25 | Cn1c(CCCCCCC#CC2CC(F)(F)C2)c(C(=O)N2CC[C@@H](C(=O)O)C2)c2cc(C#N)cnc21 [Compound I-341] | > 300
26 | Cn1c(CCCCCCCC#CC2CC(F)(F)C2)c(C(=O)N2CC[C@H](C(=O)O)C2)c2cc(C#N)cnc21 [Compound I-342] | > 300
27 | Cn1c(CCCCCC#CC2CC(F)(F)C2)c(C(=O)N2CC[C@H](C(=O)O)C2)c2cc(C#N)cnc21 [Compound I-343] | > 300
28 | Cn1c(CCCCCCC#CC2CC(F)(F)C2)c(C(=O)N2CC[C@](F)(C(=O)O)C2)c2cc(C#N)cnc21 [Compound I-344] | > 300
29 | Cn1c(CCCCCCC#CC2CC(F)(F)C2)c(C(=O)N2CC[C@H](C(=O)O)C2)c2cc(Br)cnc21 [Compound I-345] | 100 to 300
30 | C[C@@H]1[C@@H](C(=O)O)CCN1C(=O)c1c(CCCCCCC#CC2CC(F)(F)C2)n(C)c2ncc(C#N)cc12 [Compound I-346] | < 100
31 | C[C@@H]1CN(C(=O)c2c(CCCCCCC#CC3CC(F)(F)C3)n(C)c3ncc(C#N)cc23)C[C@H]1C(=O)O [Compound I-347] | > 300
32 | Cn1c(CCCCCCC#CC2CC(F)(F)C2)c(C(=O)O)c2cc(Br)cnc21 [Compound I-348] | > 300
33 | Cn1c(COCCCCC#CC2CC(F)(F)C2)c(C(=O)N2CC[C@H](C(=O)O)C2)c2cc(Cl)ccc21 [Compound I-349] | > 300
34 | Cn1c(CCCCCCCC#CC2CC(F)(F)C2)c(C(=O)N2CC[C@H](C(=O)O)C2)c2cc(Br)cnc21 [Compound I-350] | > 300
35 | COC(=O)[C@H]1CCN(C(=O)c2c(CCCCCCC#CC3CC(F)(F)C3)n(C)c3ncc(C#N)cc23)[C@@H]1C [Compound I-351] | > 300
36 | C[C@@H](CC(=O)c1c(CCCCCCC#CC2CC(F)(F)C2)n(C)c2ccc(Cl)cc12)Cc1nnn[nH]1 [Compound I-352] | < 100
37 | Cn1c(CCCCCCC#CC2CC(F)(F)C2)c(C(=O)N2CC[C@H](c3nnn[nH]3)C2)c2cc(Cl)ccc21 [Compound I-353] | < 100
38 | Cn1c(CCCCCCC#CC2CC(F)(F)C2)c(C(=O)N2CC[C@H](c3nnn[nH]3)C2)c2cc(C#N)cnc21 [Compound I-354] | < 100
39 | C[C@@H](CC(=O)c1c(CCCCOCc2cccc(Cl)c2)n(C)c2ncc(Cl)cc12)Cc1nnn[nH]1 [Compound I-355] | < 100
40 | C[C@H](CC(N)=O)CC(=O)c1c(CCCCOCc2cccc(Cl)c2)n(C)c2ncc(Cl)cc12 [Compound I-356] | > 300
41 | C[C@H](CC#N)CC(=O)c1c(CCCCOCc2cccc(Cl)c2)n(C)c2ncc(Cl)cc12 [Compound I-357] | > 300
42 | Cn1c(CCCCCCCC#CC2CC(F)(F)C2)c(C(=O)N2CC[C@H](c3nnn[nH]3)C2)c2cc(C#N)cnc21 [Compound I-358] | > 300
43 | C[C@@H](CC(=O)c1c(CCCCOCc2ccccc2)n(C)c2ncc(C#N)cc12)Cc1nnn[nH]1 [Compound I-359] | < 100
44 | Cn1c(CCCCCCc2cccc(Cl)c2)c(C(=O)N2CC[C@H](C(=O)NS(C)(=O)=O)C2)c2cc(C#N)cnc21 [Compound I-361] | > 300
45 | CC(CC(=O)NS(C)(=O)=O)CC(=O)c1c(CCCCOCc2ccccc2)n(C)c2ncc(C#N)cc12 (stereo not shown) [Compound I-362] | > 300

Row | Compound | IC50 [nM]
46 | Cn1c(CCCCCCC#CC2CC(F)(F)C2)c(C(=O)N2CC[C@H](C(=O)NS(C)(=O)=O)C2)c2cc(C#N)cnc21 [Compound I-363] | > 300
47 | Cn1c(CCCCCCC#CC2CC(F)(F)C2)c(C(=O)N2CC[C@H](C(=O)NS(=O)(=O)C(F)(F)F)C2)c2cc(C#N)cnc21 [Compound I-364] | > 300
48 | CC(CC(=O)O)CC(=O)c1c2cc(C#N)cnc2n(C)c1[C@H]1CC[C@H](OCc2cccc(Cl)c2)CC1 (stereo partly shown) [Compound I-367] | > 300
49 | C[C@@H](CC(=O)O)CC(=O)c1c(CCCCOCc2ccc(F)cc2)n(C)c2ncc(C#N)cc12 [Compound I-369] | > 300
50 | CC(CC(=O)O)CC(=O)c1c(CCCCOCc2cccc(C(=O)N(C)C)c2)n(C)c2ncc(C#N)cc12 (stereo not shown) [Compound I-370] | < 100
51 | C[C@H](CC(=O)O)CC(=O)c1c(CCCCCCc2cncs2)n(C)c2ncc(C#N)cc12 [Compound I-371] | < 100
52 | C[C@@H](CC(=O)O)CC(=O)c1c(CCCCCCc2cncs2)n(C)c2ncc(C#N)cc12 [Compound I-372] | > 300
53 | CC(CC(=O)O)CC(=O)c1c(CCCCCCc2cscn2)n(C)c2ncc(C#N)cc12 (stereo not shown) [Compound I-373] | 100 to 300
54 | CC(CC(=O)O)CC(=O)c1c(CCCCOCc2cccc(Cl)c2)n(C)c2ncc(CN(C)C)cc12 (stereo not shown) [Compound I-375] | > 300
55 | CC(CC(=O)O)CC(=O)c1c(CCCCOCc2cccc(Cl)c2)n(C[C@@H](O)CO)c2ncc(Cl)cc12 (stereo partly shown) [Compound I-376] | > 300
56 | CC(CC(=O)O)CC(=O)c1c(CCCCOCc2cccc(Cl)c2)n(CCO)c2ncc(C#N)cc12 (stereo not shown) [Compound I-377] | > 300
57 | CC(CC(=O)O)CC(=O)c1c(CCCCOCc2cccc(Cl)c2)n(CCO)c2ncc(Cl)cc12 (stereo not shown) [Compound I-378] | > 300
58 | CC(CC(=O)O)CC(=O)c1c(CCCCOCc2cccc(Cl)c2)n(C)c2nccc(Cl)c12 (stereo not shown) [Compound I-379] | > 300
59 | Cc1nc2c(cc1C#N)c(C(=O)CC(C)CC(=O)O)c(CCCCOCc1cccc(Cl)c1)n2C (stereo not shown) [Compound I-381] | > 300
60 | C[C@H](CC(=O)O)CC(=O)c1c(CCCCOCc2cccc(Cl)c2)[nH]c2ccc(C#N)cc12 [Compound I-382] | < 100
61 | C[C@H](CC(=O)O)CC(=O)c1c(CCCCOCc2cccc(C#N)c2)n(C)c2ncc(C#N)cc12 [Compound I-383] | < 100
62 | C[C@@H](CC(=O)O)CC(=O)c1c(CCCCOCc2cccc(C#N)c2)n(C)c2ncc(C#N)cc12 [Compound I-384] | > 300
63 | C[C@H](CC(=O)O)CC(=O)c1c(CCCCOCc2cc(Cl)cc(Cl)c2)n(C)c2ncc(C#N)cc12 [Compound I-385] | < 100
64 | C[C@@H](CC(=O)O)CC(=O)c1c(CCCCOCc2cc(Cl)cc(Cl)c2)n(C)c2ncc(C#N)cc12 [Compound I-386] | 100 to 300
65 | CC(CC(=O)O)CC(=O)c1c(CCCCOCc2cc(F)cc(F)c2)n(C)c2ncc(C#N)cc12 (stereo not shown) [Compound I-387] | 100 to 300
66 | CC(CC(=O)O)CC(=O)c1c(CCCCOCc2cncnc2)n(C)c2ncc(C#N)cc12 (stereo not shown) [Compound I-388] | > 300
67 | C[C@H](CC(=O)O)CC(=O)c1c(CCCCOCc2cccc(OC(F)(F)F)c2)n(C)c2ncc(C#N)cc12 [Compound I-389] | < 100
